Results taken from ChEMBL document CHEMBL3044730, “Synthesis, antimycobacterial, antiviral, antimicrobial activities, and QSAR studies of nicotinic acid benzylidene hydrazide derivatives” (Med Chem Res, 2012).
Values after ≈ are worked out from the molar mass of the structure shown.

Assays:
[1] = Cytotoxicity against Chlorocebus aethiops (African green monkey) Vero cells assessed as alteration in cell morphology by microscopy; format: cell-based; conditions: chlorocebus sabaeus
Punta Toro virus = test: Antiviral activity against Punta Toro virus infected Vero cells assessed as inhibition of virus-induced cytopathicity; format: functional, organism-based
Coxsackievirus B4 [2] = test: Antiviral activity against Human coxsackievirus B4 infected Vero cells assessed as inhibition of virus-induced cytopathicity; format: functional, organism-based; conditions: Enterovirus B
Sindbis virus = test: Antiviral activity against Sindbis virus infected Vero cells assessed as inhibition of virus-induced cytopathicity; format: functional, organism-based
[3] = test system: Mammalian orthoreovirus 1; test: Antiviral activity against Mammalian orthoreovirus 1 infected Vero cells assessed as inhibition of virus-induced cytopathicity by microscopy; format: functional, organism-based; conditions: Mammalian orthoreovirus 1, Vero
Human respirovirus 3 = test: Antiviral activity against Human parainfluenza virus 3 infected Vero cells assessed as inhibition of virus-induced cytopathicity by microscopy; format: functional, organism-based; conditions: Human respirovirus 3, Vero
[4] = Cytotoxicity against Homo sapiens (human) HeLa cells assessed as alteration in cell morphology by microscopy; format: cell-based
[5] = test system: Respiratory syncytial virus; test: Antiviral activity against Respiratory syncytial virus infected human HeLa cells assessed as inhibition of virus-induced cytopathicity by microscopy; format: functional, organism-based
Coxsackievirus B4 [6] = test: Antiviral activity against Human coxsackievirus B4 infected human HeLa cells assessed as inhibition of virus-induced cytopathicity by microscopy; format: functional, organism-based; conditions: Enterovirus B
[7] = test system: Vesicular stomatitis virus; test: Antiviral activity against Vesicular stomatitis virus infected human HeLa cells assessed as inhibition of virus-induced cytopathicity by microscopy; format: functional, organism-based
[8] = Cytotoxicity against Homo sapiens (human) HEL cells assessed as alteration in cell morphology by microscopy; format: cell-based
[9] = test system: Human herpesvirus 3 strain Oka vaccine; test: Antiviral activity against Human herpesvirus 3 strain Oka vaccine OKA 07-1 (Varicella zoster virus) infected in human HEL cells assessed as inhibition of virus-induced cytopathicity; format: functional, organism-based; conditions: Human alphaherpesvirus 3, OKA 07-1, HEL
[10] = test system: Human herpesvirus 5 strain AD169; test: Antiviral activity against Human herpesvirus 5 strain AD169 Davis infected human HEL cells assessed as inhibition of virus-induced cytopathicity by microscopy; format: functional, organism-based; conditions: Human betaherpesvirus 5, Davis
Human alphaherpesvirus 1 [11] = test: Antiviral activity against TK(-) aciclovir-resistant Human herpesvirus 1 strain KOS infected in human HEL cells assessed as inhibition of virus-induced cytopathicity; format: functional, organism-based; conditions: Human alphaherpesvirus 1, KOS
Human alphaherpesvirus 2 = test: Antiviral activity against Human herpesvirus 2 strain G infected human HEL cells assessed as inhibition of virus-induced cytopathicity by microscopy; format: functional, organism-based; conditions: Human alphaherpesvirus 2, strain G
Vaccinia virus = test: Antiviral activity against Vaccinia virus infected human HEL cells assessed as inhibition of virus-induced cytopathicity by microscopy; format: functional, organism-based; conditions: Orthopoxvirus vaccinia
[12] = Cytotoxicity against Homo sapiens (human) MT4 cells after 4 days by MTT assay; format: cell-based
Human alphaherpesvirus 1 [13] = test: Antiviral activity against Human herpesvirus 1 strain KOS infected in human HEL cells assessed as inhibition of virus-induced cytopathicity by microscopy by microscopy; format: functional, organism-based; conditions: Human alphaherpesvirus 1, KOS
[14] = test system: Human immunodeficiency virus 2; test: Antiviral activity against Human immunodeficiency virus type 2 (ISOLATE ROD) infected MT4 cells assessed as inhibition of virus-induced cytopathic effect after 4 days by MTT assay; format: functional, organism-based; conditions: Human immunodeficiency virus 2, ISOLATE ROD, MT4, 96 h
[15] = test system: Human immunodeficiency virus 1; test: Antiviral activity against Human immunodeficiency virus 1 IIIB infected MT4 cells assessed as inhibition of virus-induced cytopathic effect after 4 days by MTT assay; format: functional, organism-based; conditions: MT4, 96 h
Candida albicans [16] = test: Antimicrobial activity against Candida albicans after 2 days by serial dilution method; format: functional; set-up: unit not given here
Candida albicans [17] = test: Antimicrobial activity against Candida albicans after 7 days by serial dilution method; format: functional; set-up: unit not given here
Escherichia coli = test: Antimicrobial activity against Escherichia coli after 24 hr by serial dilution method; format: functional; set-up: unit not given here
Staphylococcus aureus = test: Antimicrobial activity against Staphylococcus aureus after 24 hr by serial dilution method; format: functional; set-up: unit not given here
Bacillus subtilis = test: Antimicrobial activity against Bacillus subtilis after 24 hr by serial dilution method; format: functional; set-up: unit not given here
[18] = test system: Mycobacterium tuberculosis; test: Antimicrobial activity against Mycobacterium tuberculosis by agar dilution method; format: functional

SMILES	MCC [1] [µg/mL]	EC50 (Punta Toro virus) [µg/mL]	EC50 (Coxsackievirus B4 [2]) [µg/mL]	EC50 (Sindbis virus) [µg/mL]	EC50 [3] [µg/mL]	EC50 (Human respirovirus 3) [µg/mL]	MCC [4] [µg/mL]	EC50 [5] [µg/mL]	EC50 (Coxsackievirus B4 [6]) [µg/mL]	EC50 [7] [µg/mL]	CC50 [8] [µg/mL]	MCC [8] [µg/mL]	EC50 [9] [µg/mL]	EC50 [10] [µg/mL]	EC50 (Human alphaherpesvirus 1 [11]) [µg/mL]	EC50 (Human alphaherpesvirus 2) [µg/mL]	EC50 (Vaccinia virus) [µg/mL]	CC50 at 96 h [12] [µg/mL]	EC50 (Human alphaherpesvirus 1 [13]) [µg/mL]	EC50 [14] [µg/mL]	also measured
O=C(N/N=C/c1cccc(O)c1)c1cccnc1	> 100	> 100	> 100	> 100	> 100	> 100	> 100	> 100	> 100	> 100	> 100	> 100	> 100	> 100	> 100	> 100	> 100	98 (≈ 406 µM)	> 100	> 98	EC50 [15]: > 98 µg/mL; -logMIC (Candida albicans [16]): 1.28; -logMIC (Candida albicans [17]): 1.29; -logMIC (Escherichia coli): 1.29; -logMIC (Staphylococcus aureus): 1.29; -logMIC (Bacillus subtilis): 1.29; MIC [18]: > 25 µg/mL
COc1ccc(OC)c(/C=N/NC(=O)c2cccnc2)c1	> 100	> 100	> 100	> 100	> 100	> 100	> 100	> 100	> 100	> 100	12 (≈ 42.1 µM)	100	> 20	> 20	> 20	> 20	> 20	13 (≈ 45.6 µM)	> 20	> 13	EC50 [15]: > 13 µg/mL; -logMIC (Candida albicans [16]): 1.36; -logMIC (Candida albicans [17]): 1.96; -logMIC (Escherichia coli): 1.96; -logMIC (Staphylococcus aureus): 1.36; -logMIC (Bacillus subtilis): 1.36; MIC [18]: > 25 µg/mL
COc1cc(/C=N/NC(=O)c2cccnc2)ccc1O	> 100	> 100	> 100	> 100	> 100	> 100	> 100	> 100	> 100	> 100	> 100	100	> 100	> 20	> 20	> 20	> 20	≥ 93	> 20	> 93	EC50 [15]: > 93 µg/mL; -logMIC (Candida albicans [16]): 1.34; -logMIC (Candida albicans [17]): 1.64; -logMIC (Escherichia coli): 0.43; -logMIC (Staphylococcus aureus): 0.43; -logMIC (Bacillus subtilis): 0.43; MIC [18]: > 25 µg/mL
CCOc1cc(/C=N/NC(=O)c2cccnc2)ccc1O	> 100	> 100	> 100	> 100	> 100	> 100	> 100	> 100	> 100	> 100	63 (≈ 221 µM)	100	> 70	> 20	> 20	> 20	> 20	≥ 117	> 20	> 117	EC50 [15]: > 117 µg/mL; -logMIC (Candida albicans [16]): 1.36; -logMIC (Candida albicans [17]): 1.96; -logMIC (Escherichia coli): 1.06; -logMIC (Staphylococcus aureus): 1.36; -logMIC (Bacillus subtilis): 1.36; MIC [18]: > 25 µg/mL
